With `OC(Cc1ccccc1)c1nc(-c2ccncc2)cs1` (stereo not drawn), the melting point – broadly, the temperature, or range, at which the solid turns liquid – is 120 to 122 °C.
Consider `Cc1ccc(S(=O)(=O)N2[C@H](CCCC(=O)O)CC[C@@H]2c2ccc(F)cc2)cc1` (racemic), for which the melting point is 87 °C.
For `CC(=O)NC(CSC(=O)c1ccccc1OC(C)=O)C(=O)O` (stereo not drawn), the melting point lay in the range of 120 to 122 °C.
In turn, `CCOC(=O)c1c(N2CCN(C)CC2)c2cnc(-c3ccccc3)nc2n(CC)c1=O` yielded a melting point of 180 to 185 °C.
In turn, `Cc1ccc(C#CC(C)N(O)C(N)=O)cc1` (stereo not drawn) displayed a melting point of 144 °C.
With `Cc1ccc(OP(Oc2ccc(C)cc2C(C)(C)C)Oc2ccc(C)cc2C(C)(C)C)c(C(C)(C)C)c1`, the melting point lay in the range of 114 to 115 °C.
In the case of `O=S(=O)(c1ccccc1)N1CCC(C(O)(c2ccc(F)cc2)c2ccc(F)cc2)CC1`, the melting point was in the range of 142 to 144 °C.
For the compound `Nc1ccc2c(c1-c1n[nH]cc1Cl)OC(F)(F)O2`, the melting point was 195 °C.
`CCCCNC(=O)C(O[Si](C)(C)C(C)(C)C)c1ccccc1Br` (stereo not drawn) gave a melting point of 38 to 39 °C.
With `Fc1ccc2c(c1)OCc1c(-c3nc(C4CCCC4)no3)ncn1-2`, the melting point fell in the range of 134 to 135 °C.
Take `Cc1cc(N2CCc3ncccc3C2)nc(N2CCCC2)c1NC(=O)Cc1cc(F)cc(F)c1`: the melting point was in the range of 203 to 206 °C.
The figure for `CCC(C)(Oc1ccc(CNc2ccc(Cl)cc2)cc1)C(=O)O` (stereo not drawn) is 152 to 153 °C; for `CC(C)=CCCC(C)=CCOc1ccc(OCC=C(C)CCC=C(C)C)c(C(=O)NCCc2ccncc2)c1` it is 59.1 to 60.6 °C; for `Cc1ccc(C(=O)c2ccccc2F)cc1` it is 73 to 74 °C.
Compound `CCOC(=O)CCCCCCOc1ccc(OCc2ccccc2)cc1` had a melting point of 57 to 61 °C.
Consider `CC(C)(C)C1=C(c2ccc(C(=O)N3CCOCC3)c(O)c2)OCC1(C)C`, for which the melting point was in the range of 141 to 142 °C.
Take `COc1ccc(S(=O)O)c(OC)c1`: the melting point is 89 to 91 °C.
The figure for `COC(=O)c1nc2c(c(SC)nn2-c2ccccc2)c(N)c1C(=O)OC` is 120 to 122 °C; for `CNC(=O)c1cccc(NC(=O)NCc2ccccc2)c1` it is 189 to 190 °C; for `CC1(C)c2cccn2-c2cc(F)c(F)cc2N1S(=O)(=O)c1ccc(O)cc1` it is 202 to 204 °C.
Compound `CC(=O)Nc1cnc(-c2ccccc2)nc1Cl` showed a melting point of 179 to 180 °C.
Compound `CCOC(=O)[C@H](C)NC(=O)CCc1cc(Cl)ccc1C(=O)CCCNC(C)=O` came in with a melting point of 106 °C.
`N#Cc1cc(Cc2ccccc2)cc(-c2cccc([N+](=O)[O-])c2)c1O` registered a melting point of 148 to 149 °C.
The compound `c1ccc(CC2CNCCNCCNCCNCCN2)cc1` (stereo not drawn) gave a melting point of 98 to 100 °C.
The compound `CCOC(=O)CC[C@H](NC(=O)c1ccc(CCc2cnc3[nH]c(NC(=O)C(C)(C)C)nc(=O)c3c2)s1)C(=O)OCC` had a melting point of 57 to 87 °C.
In turn, `COc1ccc(N2CCN(c3c(C)c(C)c4c(c3C)C(c3ccco3)C(C)(C)O4)CC2)cc1` (stereo not drawn) displayed a melting point of 110 to 111 °C.
Compound `Nc1nc2ccccc2c2c1ncn2CCCCNC(=O)c1cccc2cccnc12` yielded a melting point of 91 to 93 °C.
`C[C@H](NP(=O)(Cc1ccccc1)Cc1ccccc1)C(=O)N1CCC[C@H]1C(=O)N1CCC[C@H]1C(N)=O` returned a melting point of 89 °C.
In turn, `CCOC(=O)CCn1c(C(=O)Nc2nc(-c3cc(OC)c(Cl)cc3OC)c(CCC3CCCCC3)s2)cc2ccccc21` registered a melting point of 79 to 85 °C.
In the case of `CC(=O)c1cc(O)cc2cc(-c3ccc(O)cc3)oc12` it was 274 to 276 °C; in that of `CS(=O)(=O)N1CCSc2cccc(Cl)c2C1`, 85 to 86 °C; in that of `N#Cc1ccc(F)c(-c2ccc(OC(F)(F)F)cc2)c1`, 63.5 to 64.2 °C.
For `COC(=O)c1sc(-n2cccn2)cc1O`, the melting point fell in the range of 162 to 164 °C.
In turn, `CN(C)S(=O)(=O)c1cc(-c2csc(=Nc3ccccc3)n2C2CCCCC2)ccc1Cl` showed a melting point of 148 °C.
`CCCCCc1n[nH]c(CCCCC)n1` came in with a melting point of 66 to 68 °C.
For the compound `Cc1ccc(F)cc1C=S`, the melting point was in the range of 45 to 47 °C.
Compound `O=C(c1ccc2ccccc2c1)n1c2cc(O)c(O)cc2c2ccc(O)c(O)c21` yielded a melting point of 266 to 270 °C.
In the case of `CC(C)(NC(=O)CCNC(=O)OCc1ccccc1)c1ccccc1` it was 96 to 97 °C.
Compound `N#CN1CCC2(CC1)C(=O)c1cc(Cl)ccc1Sc1ccccc12` yielded a melting point of 142 °C.
Take `O=S(=O)(Nc1ccc(C(F)(F)F)cc1I)c1ccccc1`: the melting point fell in the range of 84 to 86 °C.
`CCOC(=O)C(CC)C(O)(c1ccccc1)c1ccc(O)cc1` (stereo not drawn) showed a melting point of 46 to 53 °C.
Turning to `CN(C)CCCN(C=O)C1CCC2C3CCc4ccccc4C3CCC21C` (stereo not drawn), the melting point was 123 to 125 °C.
In turn, `COC(=O)C=Cc1ccc2ccccc2n1` returned a melting point of 85 to 86 °C.
The compound `COC(=O)c1sc(Cl)c(Cl)c1O` yielded a melting point of 107 to 108 °C.
On to `CN1C(=O)C(C(=O)Nc2ccc(OC(F)(F)F)c(Cl)c2)C(=O)N(C)C1=O`, for which the melting point was determined as 160 °C.
`CNc1c(OC)cc(C(=O)OC)cc1OC` gave a melting point of 49 to 51 °C.
Compound `O=C1C(CCO)Oc2cc([N+](=O)[O-])ccc2N1Cc1ccccc1[N+](=O)[O-]` (stereo not drawn) registered a melting point of 139 to 143 °C.
Turning to `CC1C(=O)N(c2ccccc2)C(=S)N1c1ccc(Sc2ccccc2)cc1` (stereo not drawn), the melting point was 84 °C.
For the compound `CNC(=O)c1ccnc(NC(=O)N2CCC3(CCc4cc(F)ccc4O3)CC2)c1`, the melting point was 175 to 176 °C.
In the case of `COc1ccc(C=Cc2ncn(CC(O)(Cn3cncn3)c3ccc(F)cc3F)n2)cc1` (stereo not drawn) it was 150 to 152 °C; in that of `CC(COc1ccccc1C(=O)C(=O)c1ccccc1OCC(C)CN(C)C)CN(C)C` (stereo not drawn), 69 to 70 °C.
In the case of `Nc1cc(Br)ccc1-c1ccccc1F` it was 40 to 42 °C; in that of `N#CC(=NO)c1cccc(C(=O)c2ccccc2)c1`, 147 to 148 °C; in that of `COC(=O)CSC1NC(=O)c2sccc2-n2cccc21` (stereo not drawn), 158 °C.
In the case of `O=C(NC1N=C(c2ccccc2F)c2ccccc2NC1=S)c1ccc(Cl)cc1` (stereo not drawn) it was 156 to 158 °C.
`CC1(C)CC(Nc2nc(NC3CC(C)(C)NC(C)(C)C3)nc(N(C3CC(C)(C)NC(C)(C)C3)C3CC(C)(C)NC(C)(C)C3)n2)CC(C)(C)N1`: the melting point was in the range of 235 to 243 °C.
In turn, `CS(=O)(=O)c1ccc(Oc2cc(OCc3cccc(Cl)n3)c3[nH]c(C4=NCC(CC(=O)O)S4)cc3c2)cc1` (stereo not drawn) yielded a melting point of 175 to 176 °C.
In turn, `CCCCCCCN(C[C@H]1CCCC[C@H]1CN(CCCCCCC)C(=O)Nc1ccc(N(C)C)cc1)C(=O)Nc1ccc(N(C)C)cc1` came in with a melting point of 135 to 138 °C.
`COc1cc(N)cnc1Cl` gave a melting point of 93 to 94 °C.
With `CS(=O)(=O)Nc1cc2occc(=O)c2cc1Oc1ccc(F)cc1F`, the melting point lay in the range of 182 to 183 °C.
Take `CC1(C)C(C=C2C(C(F)(F)F)C2(F)F)C1C(=O)O` (stereo not drawn): the melting point was 45.7 °C.
As for `S=C(NCCC1=CCCCC1)Nc1ccccn1`, the melting point lay in the range of 153 to 155 °C.
Regarding `CN1Cc2c(-c3noc(CN4CCCCC4)n3)ncn2-c2ccccc2C1=O`, the melting point was 167 to 168 °C.
Consider `CCNP(=O)(Cc1ccc(NC(=O)C2=Cc3cc(C4CCCCC4)ccc3CC2)cc1)NCC`, for which the melting point is 163 to 165 °C.
In the case of `CCC12CCC3=C(CCc4cc(OC)ccc43)C1CCC2O` (stereo not drawn), the melting point is 102 to 105 °C.
`CCCCCCCCCCCCCCCCOc1ccc(S(N)(=O)=O)cc1N` returned a melting point of 103 to 105 °C.
`CC(c1oc2ccccc2c(=O)c1-c1cccc(F)c1)n1nc(-c2cccc(N(C)C)c2)c2c(N)ncnc21` (stereo not drawn) showed a melting point of 218 to 220 °C.
Compound `Cc1cc2cc(Oc3ccccc3)cnc2cc1C` yielded a melting point of 224 °C.
`Nc1ccccc(Br)c1=O` returned a melting point of 133 to 135 °C.
The figure for `CC=NN(C(=O)c1ccc(Cl)cc1)c1ccc2c(c1)OCO2` is 140 to 142 °C.
In the case of `CC(C)(C)[Si](C)(C)O[C@@H]1C=CO[C@H](CO)[C@H]1O` it was 55 to 56 °C; in that of `N#Cc1ccc(N2CCN(c3ccc(O)cc3)CC2)cc1`, 258 to 262 °C.
`CC(C)(C)c1nc(C(O)CCC2CCNCC2)c2ccccc2n1` (stereo not drawn) gave a melting point of 110 °C.
With `CCCc1c(OCC(=O)NCCCCc2cccnc2)ccc(C(C)=O)c1O`, the melting point lay within 95 to 97 °C.
The compound `COc1cc2c(cc1OC)CC(=O)N(CC1CCCNC1)CC2` (stereo not drawn) displayed a melting point of 152 to 156 °C.
Compound `Nc1sc2c(c1C(=O)c1ccco1)CCCC2` yielded a melting point of 121 to 122 °C.
For `CCN(CC)CCSc1nnc(SCN2C(=O)c3ccccc3S2(=O)=O)s1`, the melting point lay within 93 to 94.5 °C.
`CCN(C(=O)C#Cc1ccccc1)c1ccccc1C1CCCCN1C` (stereo not drawn) had a melting point of 104 to 106 °C.
Take `CNC1N=CN(c2c(Cl)cccc2Cl)C(=O)N1` (stereo not drawn): the melting point amounted to 270 °C.
`CCn1cc(C(=O)O)c(=O)c2cnc(N3CCN(C(C)=O)CC3)nc21`: the melting point lay in the range of 298 to 300 °C.
In turn, `O=C(Sc1ccc(O)cc1)c1ccc(CSc2ccc(O)cc2)cc1` had a melting point of 202 to 209 °C.
With `CC(C)c1c(NC(=O)OCc2ccccc2)nc(-c2ccc(F)cc2)n1CCC1CC(O)CC(=O)O1` (stereo not drawn), the melting point is 86 to 90 °C.
The figure for `CC1(C)Oc2ccc(C#N)cc2[C@@H](N2CCCNC2=NC#N)[C@@H]1O` (relative stereo) is 152 to 153 °C.
Compound `CN1CN(c2cccc([N+](=O)[O-])c2)c2ncccc2C1=O` displayed a melting point of 247 to 248 °C.
`Nc1ccc(C(=O)N(CCN2CCC(C(=O)c3ccc(F)cc3)CC2)c2ccccc2)cc1` came in with a melting point of 156 to 157 °C.
Compound `CN(C)CCNC(=O)c1cn(C)c(=O)c2nc3ccccc3nc12` returned a melting point of 215 to 218 °C.
In the case of `CC(OCc1cccnc1)C(=O)Nc1ccc(C(=O)Nc2ccccc2N)cc1` (stereo not drawn), the melting point was 144 to 148 °C.
In the case of `Cc1c(C)c2ccc(OCC(O)CN3CCC(NC(=O)c4ccccc4)CC3)cc2oc1=O` (stereo not drawn), the melting point lay in the range of 178 to 180 °C.

(Values after a melting point compilation (Tetko et al.; mined from patent text by program, amines drawn as free bases though some values may be those of a salt).)
